Assay results taken from publication PMC6796659, “Topoisomerase IB poisons induce histone H2A phosphorylation as a response to DNA damage in Leishmania infantum” (International Journal for Parasitology: Drugs and Drug …, 2019).

Tests used:
[1] = tested on: iRFP L. infantum promastigotes; test: Antileishmanial activity on free-living iRFP L. infantum promastigotes (infrared fluorescence viability); format: cell-based; details: Leishmania infantum, 72 h, 26 °C
Protocol: Histone phosphorylation assays were performed in promastigotes of L. infantum BCN 150 strain, whereas the antiparasitic activity of the compounds was assessed on the transgenic strain that constitutively expresses the irfp gene encoding the infrared iRFP protein (iRFP L. infantum strain) ([Calvo-Álvarez et al., 2015]), which is derived from L. infantum BCN 150. Both strains were grown at 26 °C in M-199 medium (Gibco) supplemented with 25 mM HEPES pH 7.2, 0.1 mM adenine, 0.0005% (w/v) hemin, 2 μg/mL biopterin, 0.0001% (w/v) biotin, 10% (v/v) heat-inactivated fetal bovine serum (FBS) and an antibiotic cocktail comprising 50 U/mL penicillin and 50 μg/mL streptomycin.
The antileishmanial activity of the compounds was tested both in promastigotes and in amastigotes infecting mouse splenocytes. For this purpose, 384-well optical bottom black plates (Thermo Scientific) were seeded either with free-living iRFP L. infantum promastigotes or with splenic explants infected with iRFP L. infantum amastigotes, which were incubated at 26 °C or 37 °C, respectively. The viability of both iRFP L. infantum stages was measured by recording the fluorescence emitted by viable cells at 708 nm in an Odyssey (Li-Cor) infrared imaging system after a 72-h period of incubation with different concentrations of the compounds. Dose-response curves were obtained by plotting the infrared fluorescence emission of viable parasites vs. different concentrations of testing compounds and were fitted by nonlinear analysis using the Sigma-Plot 10.0 statistical package. The reduction of infrared emission with respect to the negative control was used to determine the 50% effective concentration to kill the parasites (EC50). Both controls and treated groups were tested with DMSO (drug vehicle) concentrations below 0.1%. All compounds and controls were assayed in triplicate.

[2] = tested on: Leishmania topoisomerase IB (LTopIB); test: Relaxation of supercoiled pSK DNA by recombinant LTopIB; format: biochemical; details: Table 1
Protocol: Expression and purification of LTopIB and hTopIB were carried out according to a previously standardized protocol ([Villa et al., 2003]). The effect of indenoisoquinolines (compounds 1 to 20) on recombinant LTopIB and hTopIB was determined by measuring the relaxation of negatively supercoiled pBluescript-SK DNA plasmid (pSK). Briefly, in a total volume of 20 μL, 100 U of recombinant TopIB were incubated with 0.5 μg of pSK DNA in 10 mM Tris-HCl buffer (pH 7.5), 5 mM MgCl2, 5 mM dithiothreitol (DTT), 0.1 mM EDTA, […] bovine serum albumin, and 150 mM KCl. Different concentrations of indenoisoquinolines were also added. Following a 4-min incubation period at 25 °C, reactions were stopped with 1% (w/v) SDS, and incubated for one extra hour at 37 °C in the presence of 1 mg/mL proteinase K. Subsequently, samples were extracted with 1 vol phenol-chloroform mixture and were loaded on a 1% agarose gel containing 0.1 μg/mL ethidium bromide. The gel was run for 16 h at 4 V/cm, and the images were acquired using a G-Box system (Syngene, United Kingdom).

[3] = tested on: histone H2A (Thr128) in L. infantum promastigotes; test: Histone H2A phosphorylation (γH2A) by Western blot; format: cell-based, Leishmania infantum; details: 10 μM, 0, 15, 60, 120 min
Protocol: To detect H2A phosphorylation by L. infantum promastigotes, parasites in exponential growing phase (5–6 x 10^6 cells/mL) were incubated at 26 °C with CPT derivatives and indenoisoquinolines at a final concentration in the supplemented 199 standard medium of 10 μM. Control cells were treated with the drug vehicle DMSO using concentrations below 0.1%. After 0, 15, 60 and 120-min incubations, promastigotes were harvested by centrifugation, washed twice in PBS and the pellet resuspended in lysis buffer containing 50 mM Tris (pH:7), 50 mM NaCl, 20 mM NaF, 0.1% Tween 20 and 2x protease inhibitors (PIERCE™ protease inhibitor mini tablets). Twenty micrograms of the different extracts were loaded onto 15% SDS-PAGE gels, electrophoresed and transferred to PVDF membranes (Immobilon-FL, Millipore) using a mini trans-blot electrophoretic transfer cell (Bio-Rad). Polyclonal γH2A antisera were used at a 1:2000 dilution and secondary goat anti-rabbit IgG IRDye680 (Li-Cor Biosciences) was used at a 1:15000 dilution. The peptide competition assay was done incubating the polyclonal γH2A antisera with 50 ng/mL of the appropriate peptide (with and without phosphorylation at Thr residue) in blocking buffer for 1 h at room temperature before blotting. Loading control was performed using a monoclonal α tubulin mouse antibody at 2 μg/mL (final concentration) and a goat anti-mouse IgG IRDye 800 (Li-Cor Biosciences) as secondary antibody. Bands were visualized in an Odissey® (Li-Cor Biosciences) infrared detection facility. The quantification of γH2A signal was done with Bio-Rad Quantity One Analysis Software.

[4] = tested on: TopIB-DNA complexes in L. infantum promastigotes; test: SDS/K-DNA precipitation (in situ cleavage complex formation); format: cell-based, Leishmania infantum; details: highest concentration 30 μM, 30 min, data not shown
Protocol: In order to measure the fragmentation of DNA induced by Top poisons, L. infantum promastigotes, previously labeled with 0.5 mCi/mL [2–^14C] thymidine for 24 h, were exposed to different concentrations of indenoisoquinolines for 30 min, followed by precipitation with SDS/KCl, according to the method described previously ([Balaña-Fouce et al., 2012]). DNA fragmentation was determined as the percentage of total labeled DNA, and was calculated as follows: [(dpm in SDS/KCl drug - dpm in SDS/KCl solvent)/(dpm total incorporation)] x 100. Each experiment was run at least in triplicate.

NCCCn1c2c(c3ccccc3c1=O)C(=O)c1ccccc1-2 [Compound 2]
EC50 [1]: 0.34 ± 0.03 µM
LTopIB inhibition [2]: +++ (inhibition at 1 μM)
γH2A signal (H2A phosphorylation), Western blot [3]: strong γH2A signaling
protein-DNA complexes (SDS/K-DNA precipitable) [4]: 10%
